The values that follow are results of earlier work, collected in patent US20110268774A1, “PREPARATION OF STEM CELLS WITH REPROGRAMMED CELL SIGNALLING, A METHOD OF PRODUCING THE PREPARATION AND A METHOD OF USE THEREOF” (priority 2008, published 2011).

Molecules are shown by their SMILES.

For the data set, the target named is Protein produced by HER2/neu gene (Homo sapiens, UniProt P04626). Conditions: breast cancer.
Chain of Protein produced by HER2/neu gene (P04626 23-1255): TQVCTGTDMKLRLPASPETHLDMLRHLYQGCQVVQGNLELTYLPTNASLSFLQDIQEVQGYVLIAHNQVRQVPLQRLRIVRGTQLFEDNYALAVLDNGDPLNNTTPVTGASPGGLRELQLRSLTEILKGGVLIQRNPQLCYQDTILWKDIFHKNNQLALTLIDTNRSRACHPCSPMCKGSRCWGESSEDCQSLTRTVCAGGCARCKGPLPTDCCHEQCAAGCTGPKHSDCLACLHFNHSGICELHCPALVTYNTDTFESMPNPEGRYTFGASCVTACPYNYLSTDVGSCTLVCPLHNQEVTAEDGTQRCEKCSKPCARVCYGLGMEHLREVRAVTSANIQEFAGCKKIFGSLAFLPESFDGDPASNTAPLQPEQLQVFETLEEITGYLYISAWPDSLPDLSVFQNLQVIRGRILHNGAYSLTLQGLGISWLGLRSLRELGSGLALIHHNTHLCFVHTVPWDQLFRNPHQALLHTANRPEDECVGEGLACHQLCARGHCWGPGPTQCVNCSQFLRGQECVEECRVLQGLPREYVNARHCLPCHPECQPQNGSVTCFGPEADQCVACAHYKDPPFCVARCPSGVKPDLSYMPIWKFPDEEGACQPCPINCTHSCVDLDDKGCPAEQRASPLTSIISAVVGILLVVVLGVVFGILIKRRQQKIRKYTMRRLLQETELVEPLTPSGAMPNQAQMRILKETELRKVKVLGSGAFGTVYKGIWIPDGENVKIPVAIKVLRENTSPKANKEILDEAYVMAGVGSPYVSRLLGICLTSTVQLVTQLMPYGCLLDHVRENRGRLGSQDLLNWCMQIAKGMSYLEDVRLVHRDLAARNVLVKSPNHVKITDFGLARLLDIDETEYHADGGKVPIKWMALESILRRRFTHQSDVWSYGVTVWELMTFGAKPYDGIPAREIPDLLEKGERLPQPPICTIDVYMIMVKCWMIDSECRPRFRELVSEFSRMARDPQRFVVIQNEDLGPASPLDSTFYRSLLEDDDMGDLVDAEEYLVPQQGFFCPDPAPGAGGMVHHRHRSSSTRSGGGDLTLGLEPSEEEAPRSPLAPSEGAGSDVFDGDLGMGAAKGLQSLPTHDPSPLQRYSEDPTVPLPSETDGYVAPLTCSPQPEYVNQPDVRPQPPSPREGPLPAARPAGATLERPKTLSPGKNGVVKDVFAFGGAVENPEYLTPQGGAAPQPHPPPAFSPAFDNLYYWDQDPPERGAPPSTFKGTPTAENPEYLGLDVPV

In the case of `CS(=O)(=O)CCNCc1ccc(-c2ccc3ncnc(Nc4ccc(OCc5cccc(F)c5)c(Cl)c4)c3c2)o1` [Tykerb], the recovery is 63%. The “CSC percentage in tumour” value (from 11%) is reported as 5%.
